The record followed here is patent US20050159345A1 (Boehringer Ingelheim International GmbH, priority 2002, published 2005).

A word on the Ki: it is a dissociation constant, usually derived from enzyme kinetics or from competition with a known ligand.

What all share (type): biochemical
Assay [1] concerns the target T1, HCV genotype 1b NS3-NS4A protease (UniProt P26662).
T1 construct: fused on or other part: 28 extra N-terminal residues with a hexahistidine tag and an rTEV cleavage site
Briefly: Inhibition constant (Ki) determination and mode of inhibition, steady-state velocity, genotype 1b. Here is the method: (§1) The fluorogenic depsipeptide substrate anthranilyl-D(d)EIVP-Nva[C(O)—O] AMY(3-N2)TW—OH (SEQ ID No.13) was used to assess the mechanism of inhibition and the inhibition constants of the compound (IV) against HCV NS3-NS4A proteases. It was cleaved between the norvaline and the alanine residues. The substrate working solution was prepared in DMSO at the concentration of 200 μM from the substrate stock solution (2 mM in DMSO stored at —20° C.). The final substrate concentration in the assay varied from 0.25 to 8 μM. The inhibition constant (Ki) for compound (IV) was determined using a steady-state velocity method (Morrisson et al. 1985). The protease activity was determined by monitoring the fluorescence change associated with the cleavage of the internally quenched fluorogenic substrate using a SLM-AMINCO® 8100 spectrofluorometer ([…]). The cleavage reaction was monitored in the presence of 0.25 to 8 μM of substrate, 0.3 nM of HCV 1a or 1b NS3-NS4A heterodimer protein and various concentrations of the test compound IV in 50 mM Tris-HCl, pH 8.0, 0.25M sodium citrate, 0.01% n-dodecyl-β-D-maltoside, 1 mM TCEP. The steady-state analysis of inhibition of the HCV genotype 1a and 1b NS3-NS4A heterodimer proteases were performed using the Dixon and Cornish-Bowden graphical methods. […]

Assay [2] addresses T2, HCV genotype 2b NS3-NS4A protease (UniProt P26661).
T2 construct: fused on or other part: 28 extra N-terminal residues with a hexahistidine tag and an rTEV cleavage site
T2 sequence (P26661 1031-1661): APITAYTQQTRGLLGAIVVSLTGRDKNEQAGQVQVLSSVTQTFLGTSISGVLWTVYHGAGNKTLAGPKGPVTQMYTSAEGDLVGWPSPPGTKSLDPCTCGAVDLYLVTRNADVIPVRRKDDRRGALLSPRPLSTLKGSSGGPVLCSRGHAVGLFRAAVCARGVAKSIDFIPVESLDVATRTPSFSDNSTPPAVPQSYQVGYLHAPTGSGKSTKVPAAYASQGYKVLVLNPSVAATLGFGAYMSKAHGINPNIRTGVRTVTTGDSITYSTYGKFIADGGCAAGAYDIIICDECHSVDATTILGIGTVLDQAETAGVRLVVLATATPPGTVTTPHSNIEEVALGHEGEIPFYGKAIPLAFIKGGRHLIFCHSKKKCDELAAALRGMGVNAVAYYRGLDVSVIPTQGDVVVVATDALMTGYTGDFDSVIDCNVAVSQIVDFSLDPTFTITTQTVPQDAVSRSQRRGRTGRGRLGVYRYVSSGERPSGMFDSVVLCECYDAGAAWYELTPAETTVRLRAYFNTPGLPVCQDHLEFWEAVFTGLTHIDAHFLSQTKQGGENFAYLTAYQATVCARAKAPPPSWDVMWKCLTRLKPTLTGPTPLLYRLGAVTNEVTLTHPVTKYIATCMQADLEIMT
As to the kind of experiment: Inhibition constant (Ki) determination, genotype 2b. The note with it: read-out: Ki HCV genotype 2b.

The target in assay [3] is T3, HCV genotype 1a NS3-NS4A protease (Hepatitis C virus genotype 1a, UniProt P27958).
T3 construct: Co-purification of mature NS3 and NS4A protein complex was verified by Western blot analysis; made in house; host or cells: Sf21 insect cells, recombinant baculovirus (pFastBac HTa)
As to the kind of experiment: Inhibition constant (Ki) determination and mode of inhibition, steady-state velocity, genotype 1a. Here is the method: as §1

Assay [4] concerns the target T4, HCV genotype 3a NS3-NS4A protease (UniProt Q81258).
T4 construct: fused on or other part: 28 extra N-terminal residues with a hexahistidine tag and an rTEV cleavage site
T4 sequence (Q81258 1033-1663): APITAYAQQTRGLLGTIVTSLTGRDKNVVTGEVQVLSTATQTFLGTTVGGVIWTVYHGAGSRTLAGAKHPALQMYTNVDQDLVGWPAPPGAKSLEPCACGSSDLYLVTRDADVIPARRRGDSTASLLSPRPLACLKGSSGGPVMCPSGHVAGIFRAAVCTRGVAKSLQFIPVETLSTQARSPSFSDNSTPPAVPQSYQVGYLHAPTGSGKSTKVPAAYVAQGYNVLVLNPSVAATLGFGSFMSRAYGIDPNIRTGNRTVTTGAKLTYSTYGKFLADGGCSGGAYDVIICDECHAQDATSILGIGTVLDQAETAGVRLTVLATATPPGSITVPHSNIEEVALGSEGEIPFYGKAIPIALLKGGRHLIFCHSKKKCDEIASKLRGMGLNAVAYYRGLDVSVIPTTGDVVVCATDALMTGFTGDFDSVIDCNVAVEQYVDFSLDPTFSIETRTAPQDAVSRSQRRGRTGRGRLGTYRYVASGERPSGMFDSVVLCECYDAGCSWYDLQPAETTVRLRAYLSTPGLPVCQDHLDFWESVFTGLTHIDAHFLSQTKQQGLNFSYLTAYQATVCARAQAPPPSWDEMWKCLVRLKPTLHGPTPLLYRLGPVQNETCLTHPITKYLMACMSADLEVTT
Briefly: Inhibition constant (Ki) determination, genotype 3a. The note with it: read-out: Ki HCV genotype 3a.

Where [5] appears, read: Dixon and Cornish-Bowden plots, GraFit.

T3 sequence (P27958 1027-1657): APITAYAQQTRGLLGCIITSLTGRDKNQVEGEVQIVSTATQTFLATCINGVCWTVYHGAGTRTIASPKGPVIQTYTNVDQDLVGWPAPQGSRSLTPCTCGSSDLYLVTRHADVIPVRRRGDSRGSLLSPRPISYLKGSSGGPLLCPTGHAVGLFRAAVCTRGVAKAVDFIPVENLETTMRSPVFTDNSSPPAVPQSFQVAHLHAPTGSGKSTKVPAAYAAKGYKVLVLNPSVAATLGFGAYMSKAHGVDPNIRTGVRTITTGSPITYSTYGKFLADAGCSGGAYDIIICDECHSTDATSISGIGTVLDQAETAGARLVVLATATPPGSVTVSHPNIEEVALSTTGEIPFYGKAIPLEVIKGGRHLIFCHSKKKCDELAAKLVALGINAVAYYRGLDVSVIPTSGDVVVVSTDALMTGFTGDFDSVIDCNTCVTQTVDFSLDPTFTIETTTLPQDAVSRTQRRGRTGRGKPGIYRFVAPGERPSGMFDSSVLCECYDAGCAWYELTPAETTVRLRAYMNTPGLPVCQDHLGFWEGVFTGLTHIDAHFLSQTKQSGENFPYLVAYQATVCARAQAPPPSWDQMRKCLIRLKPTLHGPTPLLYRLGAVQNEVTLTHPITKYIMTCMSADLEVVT
T3 sequence (P27958 1658-1711): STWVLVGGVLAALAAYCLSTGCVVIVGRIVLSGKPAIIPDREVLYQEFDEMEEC
T1 sequence (P26662 1027-1657): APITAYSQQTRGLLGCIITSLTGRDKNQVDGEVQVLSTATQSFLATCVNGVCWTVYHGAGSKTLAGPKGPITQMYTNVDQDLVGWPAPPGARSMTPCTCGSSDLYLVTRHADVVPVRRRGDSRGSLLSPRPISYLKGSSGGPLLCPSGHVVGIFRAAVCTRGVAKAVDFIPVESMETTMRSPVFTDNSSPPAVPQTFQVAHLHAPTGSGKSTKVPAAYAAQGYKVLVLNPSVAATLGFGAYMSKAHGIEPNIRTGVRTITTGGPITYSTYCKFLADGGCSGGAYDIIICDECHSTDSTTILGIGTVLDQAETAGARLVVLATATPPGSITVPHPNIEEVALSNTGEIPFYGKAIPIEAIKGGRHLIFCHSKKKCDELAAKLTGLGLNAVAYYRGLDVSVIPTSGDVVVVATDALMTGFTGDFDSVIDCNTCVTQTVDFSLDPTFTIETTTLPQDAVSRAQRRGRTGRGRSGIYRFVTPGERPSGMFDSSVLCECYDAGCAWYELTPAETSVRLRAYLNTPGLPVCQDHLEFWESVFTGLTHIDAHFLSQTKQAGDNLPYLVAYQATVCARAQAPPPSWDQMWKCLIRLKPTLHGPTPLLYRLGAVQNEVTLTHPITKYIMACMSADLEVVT

For the compound `COc1ccc2c(O[C@@H]3C[C@H]4C(=O)N[C@]5(C(=O)O)CC5/C=C\CCCCC[C@H](NC(=O)OC5CCCC5)C(=O)N4C3)cc(-c3csc(NC(C)C)n3)nc2c1` (stereo partly drawn) [IV], the “mode of inhibition, HCV genotype 1b NS3-NS4A protease” value in assay [1] (setting [5]) is “competitive”. Further, the Ki in assay [1] (read-out: Ki HCV genotype 1b NS3-NS4A protease, steady-state velocity analysis) is 0.66 nM; in assay [2], 83 nM; in assay [3] it was 0.3 nM; in assay [4], 90 nM. In addition, the “mode of inhibition, HCV genotype 1a NS3-NS4A protease” value in assay [3] (setting [5]) is listed as “competitive”.
